In brackets after ≈: the same amount, converted by molar mass.
Tests used:
Experiment in all cases: ≥ marks a high value that may be exact or a test limit, other limits are often not marked, values filed in µg/mL are converted to µM
Escherichia coli SBS 363 = tested on: Escherichia coli SBS 363
[1] = tested on: Pseudomonas aeruginosa ATCC 27853
Cladosporium sp. = tested on: Cladosporium sp.
Penicillium expansum = tested on: Penicillium expansum
[2] = tested on: Candida tropicalis IOC 4560
Micrococcus luteus A270 = tested on: Micrococcus luteus A270
[3] = tested on: Candida albicans IOC 4558
Cryptococcus neoformans = tested on: Cryptococcus neoformans
[4] = tested on: Pseudomonas aeruginosa 1570
[5] = tested on: Pseudomonas aeruginosa 8600
[6] = tested on: Pseudomonas aeruginosa 5167
[7] = tested on: Staphylococcus aureus 5118
[8] = tested on: Staphylococcus aureus E4049
[9] = tested on: Staphylococcus aureus ATCC 9144
[10] = tested on: Listeria monocytogenes ATCC 19115
[11] = tested on: Bacillus subtilis CMCC 63501
[12] = tested on: Staphylococcus aureus CMCC 26003
[13] = tested on: Candida albicans KCTC 7270
[14] = tested on: Staphylococcus aureus ATCC 25923
[15] = tested on: Pseudomonas aeruginosa 4891
[16] = tested on: Pseudomonas aeruginosa 4007
[17] = tested on: Trichosporon beigelii KCTC 7707
[18] = tested on: Listeria monocytogenes KCTC 3710
[19] = tested on: Escherichia coli CCARM 1229
[20] = tested on: Escherichia coli ATCC 25922
[21] = tested on: Escherichia coli CCARM 1238
[22] = tested on: Salmonella typhimurium KCTC 1926
[23] = tested on: Bacillus subtilis KCTC 1998
[24] = tested on: Staphylococcus aureus CCARM 3518
[25] = tested on: Staphylococcus aureus CCARM 3090
[26] = tested on: Staphylococcus aureus ATCC 29213
[27] = tested on: Staphylococcus epidermidis ATCC 35984
[28] = tested on: Staphylococcus aureus ATCC 33591
[29] = tested on: Pseudomonas aeruginosa ATCC 47615
[30] = tested on: Pseudomonas aeruginosa ATCC 10145
[31] = tested on: Staphylococcus aureus ATCC 27660
Escherichia coli D31 = tested on: Escherichia coli D31
[32] = tested on: Klebsiella pneumoniae ATCC 700603
[33] = tested on: Micrococcus luteus 1D00051
[34] = tested on: Vibrio vulnificus 1H00066
[35] = tested on: Staphylococcus aureus 1D00101

Compound: CC(C)C[C@H](NC(=O)[C@H](Cc1ccccc1)NC(=O)[C@H](CC(=O)O)NC(=O)CNC(=O)[C@H](CCC(=O)O)NC(=O)CNC(=O)[C@H](CO)NC(=O)[C@H](CC(=O)O)NC(=O)[C@H](C)N)C(=O)N[C@@H](C)C(=O)N[C@@H](CCC(=O)O)C(=O)NCC(=O)NCC(=O)NCC(=O)N[C@H](C(=O)N[C@@H](CCCN=C(N)N)C(=O)O)C(C)C [ADSGEGDFLAEGGGVR]
- MIC (Escherichia coli SBS 363): 7.39 µM (≈ 11.4 µg/mL)
- MIC [1]: 7.39 µM (≈ 11.4 µg/mL)
- MIC (Cladosporium sp.): ≥ 59.4 µM
- MIC (Penicillium expansum): ≥ 59.4 µM
- MIC [2]: 7.39 µM (≈ 11.4 µg/mL)
- MIC (Micrococcus luteus A270): ≥ 59.4 µM
- MIC [3]: ≥ 59.4 µM
- MIC (Cryptococcus neoformans): ≥ 59.4 µM

Compound: CC(C)C[C@H](NC(=O)[C@H](CC(C)C)NC(=O)[C@H](CCCCN)NC(=O)[C@H](CCCCN)NC(=O)[C@H](CC(C)C)NC(=O)[C@H](CC(C)C)NC(=O)[C@H](CCCCN)NC(=O)[C@H](CC(C)C)NC(=O)[C@H](C)N)C(N)=O [ALKLLKKLL]
- MIC [4]: ≥ 43.5 µM
- MIC [5]: 10.9 µM (≈ 11.3 µg/mL)
- MIC [6]: ≥ 123 µM

Compound: CC[C@H](C)[C@H](NC(=O)CNC(=O)[C@H](CC(=O)O)NC(=O)[C@@H](N)CC(=O)O)C(=O)N[C@@H](Cc1ccccc1)C(=O)N[C@H](C(=O)N[C@@H](C)C(=O)N[C@@H](Cc1ccccc1)C(=O)N[C@H](C(=O)N[C@@H](C)C(=O)N[C@H](C(=O)N[C@@H](CC(N)=O)C(=O)N[C@H](C(=O)N[C@H](C(=O)N[C@@H](CC(C)C)C(=O)N[C@H](C(=O)N[C@H](C(=O)N[C@H](C(=O)N[C@@H](Cc1ccccc1)C(=O)N[C@@H](Cc1ccc(O)cc1)C(=O)O)[C@@H](C)CC)C(C)C)[C@@H](C)O)[C@@H](C)CC)[C@@H](C)CC)[C@@H](C)CC)[C@@H](C)CC)[C@@H](C)CC [DDGIFIAFIAINIILTVIFY]
- MIC [7]: 2.2 µM (≈ 5 µg/mL)
- MIC [8]: ≥ 271 µM
- MIC [9]: ≥ 271 µM

Compound: CC[C@H](C)[C@H](NC(=O)[C@H](CCCN=C(N)N)NC(=O)[C@H](CCCN=C(N)N)NC(=O)[C@H](Cc1c[nH]c2ccccc12)NC(=O)[C@@H](N)Cc1ccccc1)C(=O)N[C@@H](CCCN=C(N)N)C(=O)N[C@H](C(N)=O)C(C)C [FWRRIRV]
- MIC [10]: 31 µM (≈ 32 µg/mL)
- MIC [11]: ≥ 124 µM
- MIC [12]: ≥ 62 µM

Compound: CC[C@H](C)[C@H](NC(=O)CNC(=O)[C@H](CCC(N)=O)NC(=O)[C@H](CO)NC(=O)[C@@H](NC(=O)[C@H](CCCCN)NC(=O)[C@H](CCCCN)NC(=O)[C@H](CC(C)C)NC(=O)[C@H](C)NC(=O)[C@H](CC(N)=O)NC(=O)[C@H](CC(C)C)NC(=O)CN)C(C)C)C(=O)N[C@@H](Cc1cnc[nH]1)C(=O)N[C@@H](CCC(=O)O)C(=O)N[C@@H](CO)C(=O)N[C@H](C(=O)N[C@@H](CCCCN)C(=O)N[C@@H](CC(C)C)C(=O)N[C@H](C(=O)N[C@@H](CC(N)=O)C(=O)N[C@@H](CC(N)=O)C(=O)N[C@@H](Cc1cnc[nH]1)C(=O)N[C@H](C(=O)N[C@@H](CCC(N)=O)C(N)=O)C(C)C)[C@@H](C)CC)[C@@H](C)CC [GLNALKKVSQGIHESIKLINNHVQ]
- MIC [13]: ≥ 64 µM
- MIC [14]: 32 µM (≈ 84.5 µg/mL)
- MIC [15]: ≥ 64 µM
- MIC [16]: ≥ 64 µM
- MIC [17]: ≥ 64 µM
- MIC [18]: ≥ 32 µM
- MIC [19]: ≥ 64 µM
- MIC [20]: 16 µM (≈ 42.2 µg/mL)
- MIC [1]: 16 µM (≈ 42.2 µg/mL)
- MIC [21]: ≥ 64 µM
- MIC [22]: 16 µM (≈ 42.2 µg/mL)
- MIC [23]: ≥ 32 µM
- MIC [24]: ≥ 64 µM
- MIC [25]: ≥ 64 µM

Compound: CC[C@H](C)[C@H](NC(=O)[C@H](CCCCN)NC(=O)[C@@H](NC(=O)[C@H](Cc1ccccc1)NC(=O)[C@H](C)NC(=O)[C@H](CCCCN)NC(=O)CNC(=O)[C@H](Cc1ccccc1)NC(=O)[C@H](CCCCN)NC(=O)[C@H](CCCCN)NC(=O)[C@H](C)NC(=O)[C@H](CCCCN)NC(=O)[C@H](CCCCN)NC(=O)[C@H](CC(C)C)NC(=O)[C@H](Cc1ccccc1)NC(=O)[C@@H](N)CCCCN)C(C)C)C(=O)N[C@@H](CC(C)C)C(N)=O [KFLKKAKKFGKAFVKIL]
- MIC [14]: 5.67 µM (≈ 11.3 µg/mL)
- MIC [20]: 3.91 µM (≈ 7.8 µg/mL)
- MIC [26]: 15.6 µM (≈ 31.2 µg/mL)
- MIC [1]: 0.251 µM (≈ 0.5 µg/mL)
- MIC [27]: 1 µM (≈ 2 µg/mL)
- MIC [28]: 16 µM (≈ 32 µg/mL)
- MIC [29]: 1.96 µM (≈ 3.91 µg/mL)

Compound: CC[C@H](C)[C@H](NC(=O)CNC(=O)[C@H](CCCCN)NC(=O)[C@H](Cc1ccccc1)NC(=O)[C@H](CC(C)C)NC(=O)[C@H](CCCCN)NC(=O)[C@H](CCCCN)NC(=O)[C@H](C)NC(=O)[C@H](CCCCN)NC(=O)[C@H](CCCCN)NC(=O)[C@H](Cc1ccccc1)NC(=O)CNC(=O)[C@H](CCCCN)NC(=O)[C@H](C)NC(=O)[C@H](Cc1c[nH]c2ccccc12)NC(=O)[C@@H](NC(=O)[C@H](CCCCN)NC(=O)[C@@H](NC(=O)[C@H](CC(C)C)NC(=O)[C@H](CCCCN)NC(=O)[C@@H](N)CCCCN)[C@@H](C)CC)C(C)C)C(=O)NCC(=O)O [KKLIKVWAKGFKKAKKLFKGIG]
- MIC [30]: 1.88 µM (≈ 4.73 µg/mL)
- MIC [31]: 0.94 µM (≈ 2.37 µg/mL)
- MIC (Escherichia coli D31): 0.94 µM (≈ 2.37 µg/mL)
- MIC [32]: 1.88 µM (≈ 4.73 µg/mL)

Compound: CC[C@H](C)[C@H](NC(=O)[C@H](CS)NC(=O)[C@H](Cc1cnc[nH]1)NC(=O)[C@H](CCCN=C(N)N)NC(=O)[C@@H](N)CCCN=C(N)N)C(=O)N[C@@H](CCCCN)C(=O)N[C@@H](CCCCN)C(=O)N[C@@H](CS)C(=O)N[C@@H](CCSC)C(=O)N[C@@H](CCCCN)C(=O)N[C@@H](CO)C(=O)N[C@@H](CCCN=C(N)N)C(=O)N[C@@H](CCCCN)C(=O)N[C@@H](Cc1cnc[nH]1)C(=O)N[C@@H](CC(N)=O)C(=O)N[C@@H](CCC(=O)O)C(=O)N[C@@H](CCCN=C(N)N)C(=O)N[C@@H](CCSC)C(=O)N[C@H](C(=O)N[C@@H](CCCN=C(N)N)C(=O)N[C@H](C(=O)N[C@@H](CCCN=C(N)N)C(=O)N[C@@H](CCCN=C(N)N)C(=O)N[C@@H](CCCCN)C(=O)O)[C@@H](C)CC)[C@@H](C)CC [RRHCIKKCMKSRKHNERMIRIRRK]
- MIC [33]: 5 µM (≈ 15.8 µg/mL)
- MIC [34]: ≥ 300 µM
- MIC [35]: ≥ 40 µM

Reference: DBAASP
